This note sets out measurements from patent publication US6982348B2, “Aminoethanol derivatives” (Takeda Pharmaceutical Company Limited, priority 2001, dated 2006).

The structures appear in SMILES notation.

In the first data set the target is T1, human CETP (Homo sapiens, UniProt P11597).
T1 sequence (P11597 18-493): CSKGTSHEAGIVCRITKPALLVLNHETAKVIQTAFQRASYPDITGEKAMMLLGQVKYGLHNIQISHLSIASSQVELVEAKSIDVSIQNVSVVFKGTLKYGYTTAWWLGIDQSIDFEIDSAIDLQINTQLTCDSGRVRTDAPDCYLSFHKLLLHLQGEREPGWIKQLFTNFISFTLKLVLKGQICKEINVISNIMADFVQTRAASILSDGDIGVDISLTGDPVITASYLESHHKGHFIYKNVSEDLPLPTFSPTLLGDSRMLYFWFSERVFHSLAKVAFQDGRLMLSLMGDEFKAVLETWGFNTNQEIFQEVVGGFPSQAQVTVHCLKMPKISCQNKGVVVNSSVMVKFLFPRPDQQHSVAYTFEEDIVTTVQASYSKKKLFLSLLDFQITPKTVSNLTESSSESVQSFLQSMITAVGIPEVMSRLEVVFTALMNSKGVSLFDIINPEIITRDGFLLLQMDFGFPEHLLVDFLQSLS
Kind of data set: Assay of cholesteryl ester transfer protein inhibitory activity, standard measurement system. Type of data set: biochemical. As to conditions: BODIPY-CE-ME donor, VLDL-LDL acceptor, reaction at 37° C. for 30 min. Here is the method:
Assay of Cholesteryl Ester Transfer Protein Inhibitory Activity
Fresh rabbit serum was adjusted with KBr to the density of (1.063 g/ml), and the fractions (VLDL-LDL, density<1.063 g/ml) floated by ultra-centrifugation operation (SW41—Ti, 40,000 rpm, 18 hrs., 4° C., Beckman model L8-55) were collected, subjected to dialysis against 0.15 M NaCl-10 mM Tris-HCl, pH 7.4 (TBS), sterilized by filtration through a filter and preserved at 4° C.
A solution of BODIPY-CE (0.6 mg) in chloroform was added to egg PC (phosphatidylcholine) ([…]) and triolein (2 mg), and after dissolution, the lipid was air dried under a nitrogen gas reflux and the solvent was removed under high vacuum. To this lipid was added an apo HDL solution (7.5 ml) obtained by defatting human HDL (1.063<d<1.21) with chloroform-methanol (2:1, v/v), dissolving in 6 M urea-containing TBS and dialyzing against TBS, and the mixture was subjected to sonication (BRANSON SONIFIRE CELL DISRUPTOR 200, dial 6, 5 min×4) to give BOBIPY-CE-ME. After centrifugation (CENTRIPREP 10), it was sterilized by filtration through a filter and preserved at 4° C.
The test compound (20% DMSO solution, 5 μl), TS (75 μl), acceptor lipoprotein (VLDL-LDL, 20 μl) and partially purified human CETP (25 μl) were mixed and incubated at 37° C. for 30 min. BODIPY-CE-ME (25 μl) was added (total 150 μl) and a transfer reaction was started. After reaction at 37° C. for 30 min., fluorescence intensity was measured at Ex. 490 nm/Em. 530 nm. The CETP inhibitory activity (% inhibition) was calculated by the following formula. [formula] 4) 50% Human Plasma-Containing Measurement System
The IC50 value was determined as a concentration showing 50% inhibition by plotting the logarithm of the concentration of test compound and % inhibition.
In turn, `O=C(N[C@H](Cc1ccc(C(F)(F)F)cc1)[C@@H](O)c1ccc(F)cc1)c1cccc2c1C=CCCC2` (racemic) [Example 29, N-[(1RS,2SR)-2-(4-fluorophenyl)-2-hydroxy-1-[4-(trifluoromethyl)benzyl]ethyl]-6,7-dihydro-5H-benzo[a]cycloheptene-1-carboxamide] came in with an IC50 of 0.12 µM. That is a sub-micromolar value.

In the case of `O=C(N[C@H](Cc1ccc(C(F)(F)F)cc1)[C@@H](O)c1cccc(F)c1)c1cccc2c1C=CCCC2` (racemic) [Example 177, N-((1RS,2SR)-2-(3-fluorophenyl)-2-hydroxy-1-((4-(trifluoromethyl)phenyl)methyl)ethyl)-6,7-dihydro-5H-benzo[a]cycloheptene-1-carboxamide], the IC50 amounted to 0.091 µM. This IC50 and that of the compound before are within 1.5-fold of each other.

Tested on in a further data set: not given
Assay: not given
Conditions: not given
`O=C(N[C@H](Cc1ccc(C(F)(F)F)cc1)[C@@H](O)c1ccc(F)cc1)c1cccc2c1C=CCCC2` (racemic) [Example 29, N-[(1RS,2SR)-2-(4-fluorophenyl)-2-hydroxy-1-[4-(trifluoromethyl)benzyl]ethyl]-6,7-dihydro-5H-benzo[a]cycloheptene-1-carboxamide] registered a melting point of 197 to 198 °C. Same read-out and setting: then `O=C(N[C@H](Cc1ccc(C(F)(F)F)cc1)[C@@H](O)c1cccc(F)c1)c1cccc2c1C=CCCC2` (racemic) [Example 177, N-((1RS,2SR)-2-(3-fluorophenyl)-2-hydroxy-1-((4-(trifluoromethyl)phenyl)methyl)ethyl)-6,7-dihydro-5H-benzo[a]cycloheptene-1-carboxamide], with 151 to 152 °C; and `O=C(N[C@H](Cc1ccc(C(F)(F)F)cc1)[C@@H](O)c1ccc(F)cc1)c1ccc(Br)c2ccccc12` (racemic) [Example 43, 4-bromo-N-[(1RS,2SR)-2-(4-fluorophenyl)-2-hydroxy-1-[4-(trifluoromethyl)benzyl]ethyl]naphthalene-1-carboxamide], with 229 to 231 °C; and `O=C(N[C@H](Cc1ccc(C(F)(F)F)cc1)[C@@H](O)c1cccc(F)c1)c1ccc(F)c2ccccc12` (racemic) [Example 176, 4-fluoro-N-((1RS,2SR)-2-(3-fluorophenyl)-2-hydroxy-1-((4-(trifluoromethyl)phenyl)methyl)ethyl)-1-naphthalenecarboxamide], with 200 to 201 °C. On the same count and under the same terms, then `O=C(N[C@H](Cc1cccc(CC(F)(F)C(F)F)c1)[C@@H](O)c1ccc(F)cc1)c1cccc2c(Cl)cccc12` (racemic) [Example 340, 5-chloro-N-[(1RS,2SR)-2-(4-fluorophenyl)-2-hydroxy-1-[3-(2,2,3,3-tetrafluoropropyl)benzyl]ethyl]naphthalene-1-carboxamide], with 174 to 175 °C; and `O=C(N[C@H](Cc1cccc(SC(F)(F)F)c1)[C@@H](O)c1ccc(F)cc1)c1ccc(F)c2ccccc12` (racemic) [Example 269, 4-fluoro-N-((1RS,2SR)-2-(4-fluorophenyl)-2-hydroxy-1-{3-[(trifluoromethyl)thio]benzyl}ethyl)-1-naphthamide], with 192 to 193 °C. On the same count and under the same terms, next, `O=C(N[C@H](Cc1ccc(C(F)(F)F)cc1)[C@@H](O)c1ccc(F)cc1)c1cccc2cccnc12` (racemic) [Example 80, N-((1RS,2SR)-2-(4-fluorophenyl)-2-hydroxy-1-((4-(trifluoromethyl)phenyl)methyl)ethyl)-8-quinolinecarboxamide]: 83 to 84 °C; `O=C(N[C@H](Cc1ccc(C(F)(F)F)cc1)[C@@H](O)c1ccc(F)cc1)c1ccc(C(F)(F)F)cc1` (racemic) [Example 81, N-((1RS,2SR)-2-(4-fluorophenyl)-2-hydroxy-1-((4-(trifluoromethyl)phenyl)methyl)ethyl)-4-(trifluoromethyl)benzamide]: 228 to 229 °C; `O=C(CCc1ccccc1)N[C@H](Cc1ccc(C(F)(F)F)cc1)[C@@H](O)c1ccc(F)c(F)c1` (racemic) [Example 184, N-((1RS,2SR)-2-(3,4-difluorophenyl)-2-hydroxy-1-((4-(trifluoromethyl)phenyl)methyl)ethyl)-3-phenylpropanamide]: 114 to 115 °C. Compound `O=C(N[C@H](Cc1cccc(OC(F)(F)C(F)F)c1)[C@@H](O)c1ccc(Oc2cccnc2)cc1)c1cccc2c1C=CCCC2` (racemic) [Example 261, N-{(1RS,2SR)-2-hydroxy-2-[4-(pyridin-3-yloxy)phenyl]-1-[3-(1,1,2,2-tetrafluoroethoxy)benzyl]ethyl}-6,7-dihydro-5H-benzo[a][7]annulene-1-carboxamide] had a melting point of 133 to 134 °C. The compound `CCCCc1ccc(C(=O)N[C@H](Cc2ccc(C(F)(F)F)cc2)[C@@H](O)c2ccc(F)cc2)cc1` (racemic) [Example 79, 4-butyl-N-((1RS,2SR)-2-(4-fluorophenyl)-2-hydroxy-1-((4-(trifluoromethyl)phenyl)methyl)ethyl)benzamide] registered a melting point of 171 to 172 °C. The same measure, in the same setting: next, `Cc1cc(C)c(C(=O)NC(Cc2ccc(C(F)(F)F)cc2)C(O)c2ccc(F)cc2)c(C)c1` (racemic) [Example 17, N-[2-(4-fluorophenyl)-2-hydroxy-1-[[4-(trifluoromethyl)phenyl]methyl]ethyl]-2,4,6-trimethylbenzamide]: 141 to 143 °C; `O=C(N[C@H](Cc1ccc(C(F)(F)F)cc1)[C@@H](O)c1ccc(F)cc1)c1ccc(/C=C\c2ccc(Cl)cc2)cc1` (racemic) [Example 89, 4-[(Z)-2-(4-chlorophenyl)ethenyl]-N-[(1RS,2SR)-2-(4-fluorophenyl)-2-hydroxy-1-[4-(trifluoromethyl)benzyl]ethyl]benzenecarboxamide]: 193 to 194 °C. On the same count and under the same terms, then `O=C(N[C@H](Cc1cccc(OC(F)(F)C(F)F)c1)[C@@H](O)c1ccc(CO)cc1)c1cccc2c1C=CCCC2` (racemic) [Example 327, N-[(1RS,2SR)-2-hydroxy-2-[4-(hydroxymethyl)phenyl]-1-[3-(1,1,2,2-tetrafluoroethoxy)benzyl]ethyl]-6,7-dihydro-5H-benzo[a]cycloheptene-1-carboxamide], with 151 to 152 °C; and `O=C(CCCc1ccccc1)N[C@H](Cc1ccc(F)cc1)[C@@H](O)c1ccc(F)cc1` (racemic) [Example 147, N-((1RS,2SR)-2-(4-fluorophenyl)-1-((4-fluorophenyl)methyl)-2-hydroxyethyl)-4-phenylbutyramide], with 147 to 148 °C; and `O=C(N[C@H](Cc1ccc(C(F)(F)F)cc1)[C@@H](O)c1ccc(F)cc1)c1cccc2cc3ccccc3cc12` (racemic) [Example 66, N-((1RS,2SR)-2-(4-fluorophenyl)-2-hydroxy-1-((4-(trifluoromethyl)phenyl)methyl)ethyl)-1-anthracenecarboxamide], with 227 to 228 °C. As to `COc1ccc(C[C@@H](NC(=O)CCCc2ccccc2)[C@@H](O)c2ccc(F)cc2)cc1` (racemic) [Example 151, N-((1RS,2SR)-2-(4-fluorophenyl)-2-hydroxy-1-((4-(methyloxy)phenyl)methyl)ethyl)-4-phenylbutyramide], the melting point lay in the range of 130 to 131 °C. In turn, `CC(C)(C)OC(=O)N[C@H](Cc1ccc(C(F)(F)F)cc1)[C@@H](O)c1ccc(F)cc1` (racemic) [Example 28, 1,1-dimethylethyl (1RS,2SR)-2-(4-fluorophenyl)-2-hydroxy-1-((4-(trifluoromethyl)phenyl)methyl)ethylcarbamate] displayed a melting point of 158 to 159 °C. As to `O=C(N[C@H](Cc1ccccc1C(F)(F)F)[C@@H](O)c1ccc(F)cc1)C1CCCCC1` (racemic) [Example 142, N-((1RS,2SR)-2-(4-fluorophenyl)-2-hydroxy-1-((2-(trifluoromethyl)phenyl)methyl)ethyl)cyclohexanecarboxamide], the melting point lay in the range of 216 to 217 °C. In the case of `CC(C)(C)OC(=O)N[C@H](Cc1cccc(OC(F)(F)C(F)F)c1)[C@@H](O)c1ccc(F)nc1` (racemic) [Example 223, 1,1-dimethylethyl(1RS,2SR)-2-(6-fluoropyridin-3-yl)-2-hydroxy-1-((3-(1,1,2,2-tetrafluoroethoxy)phenyl)methyl)ethylcarbamate], the melting point was in the range of 128 to 129 °C.

For `CC(C)(C)c1ccc(C(=O)NC(Cc2ccc(C(F)(F)F)cc2)C(O)c2ccc(F)cc2)cc1` (racemic) [Example 19, 4-tert-butyl-N-[2-(4-fluorophenyl)-2-hydroxy-1-[[4-(trifluoromethyl)phenyl]methyl]ethyl]benzamide], the melting point came to 58 °C. In turn, `O=C(CCc1ccccc1)N[C@H](Cc1ccc(C(F)(F)F)cc1)[C@@H](O)c1ccccc1` (racemic) [Example 175, N-((1RS,2SR)-2-hydroxy-2-phenyl-1-((4-(trifluoromethyl)phenyl)methyl)ethyl)-3-phenylpropanamide] returned a melting point of 147 to 148 °C.

The term IC50 denotes the point on the concentration scale where inhibition reaches its midpoint. Broadly, the melting point is the temperature of the solid-liquid transition.
